Data: patent US9636342B2, “Method for treating prostate cancer” (UNIVERSITY OF SOUTH CAROLINA, priority 2012, dated 2017)
pKd: −log10 of the molar value.

What was measured:
[1] = test system: AR-dependent genes in LNCaP-LN3 cells; assay: qPCR expression of AR-dependent genes KLK3 (PSA) and KLK2 in LNCaP-LN3 cells without androgen; format: cell-based; conditions: for expression of KLK2 / expression of PSA: LNCaP-LN3 cells, absence of androgen, 5 μM Senexin B or 10 μM MDV3100 (FIG. 6D)
Source text: (§1) Endogenous AR activities in these cells were estimated by qPCR analysis of mRNA expression of AR-dependent genes, KLK3 (PSA) and KLK2.

[2] = test system: AR-dependent genes in CWR22rv1 cells; assay: qPCR expression of AR-dependent genes KLK3 (PSA) and KLK2 in CWR22rv1 cells without androgen; format: cell-based; conditions: for expression of KLK2 / expression of PSA: absence of androgen, 5 μM Senexin B or 10 μM MDV3100 (FIG. 6D)
Source text: as §1

LNCaP-LN3 cells = assay: Growth of androgen-independent LNCaP-LN3 cells in androgen-depleted CSS media (cell count); format: cell-based; conditions: for growth (total cell number): LNCaP-LN3 cells, 5 μM Senexin B or 10 μM MDV3100 (FIG. 6B)
Source text: (§2) In most of CRPC patients, prostate cancer tumor cells restore their AR activities despite low-androgen environment or presence of AR antagonists.

CWR22rv1 cells = assay: Growth of androgen-independent CWR22rv1 cells in androgen-depleted CSS media (cell count); format: cell-based; conditions: for growth (total cell number): 5 μM Senexin B or 10 μM MDV3100 (FIG. 6B)
Source text: as §2

AR = assay: Promoter activity assay (firefly luciferase reporter) in HEK293 cells overexpressing full-length wild-type AR; format: cell-based; conditions: for activation of androgen-responsive construct (firefly luciferase reporter under PSA gene promoter): HEK-293 cells overexpressing AR, in the presence of R1881 (FIG. 4A, FIG. 5)
[3] = test system: androgen-responsive genes in LNCaP cells; assay: qPCR expression of androgen-responsive genes in LNCaP cells; format: cell-based
[4] = test system: AR-dependent genes in C4-2 cells; assay: qPCR expression of AR-dependent genes KLK3 (PSA) and KLK2 in C4-2 cells without androgen; format: cell-based; conditions: CSS media 2d, treated 24 hours (FIG. 6C)
Source text: as §1

Water solubility = format: physicochemical
Source text: (§3) These small molecules selectively bind to the ATP pockets of CDK8/19 to inhibit their kinase activity.

C4-2 cells = assay: Growth of androgen-independent C4-2 cells in androgen-depleted CSS media (cell count); format: cell-based; conditions: different concentrations of Senexin B (FIG. 6A)
Source text: as §2

[5] = test system: LN-CaP LN3 (LN3) prostate cancer cells xenograft; assay: LNCaP-LN3 xenograft growth in nude mice; format: in vivo, nude male mice; conditions: 40 mg/kg i.p. daily
Experimental: 6-8 week-old nude male mice (Jackson Laboratory) were subcutaneously injected with 2 million LN-CaP LN3 (LN3) prostate cancer cells in the right flank, with Matrigel. Visible tumors formed ˜14 days after injection. […] The tumor size was measured by caliper 3 times per week and calculated by the equation length*width*width*0.5. […] At the end of the experiment, mice from each group were sacrificed to determine final tumor weight.

PC-3 cells = assay: Growth of PC-3 cells in androgen-depleted CSS media (cell count); format: cell-based; conditions: different concentrations of Senexin B, p<0.05 vs DMSO (FIG. 7)
Source text: PC-3 cell growth was previously shown to be inhibited by the inhibition of transcription factor NFκB^43-45, and CDK8/19 inhibition was discovered by Senex to decrease the induction of NFκB transcriptional activity (PCT Publication WO2013/040153).

CDK8 = CDK8 (Homo sapiens, UniProt P49336); assay: Senexin B inhibition of CDK8 kinase activity (Kd); format: binding
CDK8, sequence (P49336 whole entry): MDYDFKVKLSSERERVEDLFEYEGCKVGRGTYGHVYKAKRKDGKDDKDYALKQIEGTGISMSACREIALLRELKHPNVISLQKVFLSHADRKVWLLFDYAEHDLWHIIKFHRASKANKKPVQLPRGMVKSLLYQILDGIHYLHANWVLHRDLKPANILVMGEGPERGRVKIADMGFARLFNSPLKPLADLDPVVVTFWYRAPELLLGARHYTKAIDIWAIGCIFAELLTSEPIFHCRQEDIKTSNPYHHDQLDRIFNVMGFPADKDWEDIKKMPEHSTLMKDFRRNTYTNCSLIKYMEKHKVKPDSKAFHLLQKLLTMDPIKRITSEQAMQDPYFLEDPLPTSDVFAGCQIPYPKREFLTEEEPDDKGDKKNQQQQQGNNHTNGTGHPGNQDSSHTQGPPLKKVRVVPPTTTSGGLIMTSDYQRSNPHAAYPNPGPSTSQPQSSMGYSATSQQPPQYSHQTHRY
Source text: The invention provides a method for treating prostate cancer in a subject comprising administering to the subject an effective amount of a selective inhibitor of one or more of CDK8 and CDK19. […] For purposes of the invention, “specific inhibitors of CDK8/19” are small molecule compounds that inhibit CDK8 or CDK8 and CDK19 to a greater extent than they inhibit certain other CDKs. In some embodiments, such compounds further inhibit CDK8 to a greater extent than CDK9. In preferred embodiments, such greater extent is at least 2-fold more than CDK9. Compounds that are useful in the invention are described in co-pending US Patent Publications 20120071477 and 20120071477 and PCT Publication WO2013/116786. Extent of inhibition is measured by the assays taught in co-pending PCT Publication WO2013/116786.
as §3

## CNC(=O)c1ccc(N2C(=S)N(c3ccc(C#N)c(C(F)(F)F)c3)C(=O)C2(C)C)cc1F [MDV3100, enzalutamide, reference compound]
[1]
  expression of KLK2: does not down-regulate
  expression of PSA: weakly down-regulates
[2]
  expression of KLK2: does not down-regulate
  expression of PSA: does not down-regulate
LNCaP-LN3 cells
  growth (total cell number): weakly inhibited
CWR22rv1 cells
  growth (total cell number): does not inhibit

## N#Cc1ccc2ncnc(NCCc3ccccc3)c2c1 [Senexin A]
AR; HEK293 cells overexpressing AR, Senexin A 1 μM and 5 μM, in the presence of R1881 (FIG. 4B)
  activation of androgen-responsive construct (firefly luciferase reporter under PGC gene promoter): significantly inhibits
AR
  activation of androgen-responsive construct (firefly luciferase reporter under PSA gene promoter): significantly inhibited
[3]; LNCaP cells, Senexin A 5 μM, androgen-supplemented (500 pM R1881) or androgen-deprived conditions (FIG. 2A)
  androgen-stimulated transcriptional activation of androgen-responsive genes PSA (KLK3), KLK2, TMPRSS2, PGC: significantly inhibited

## CN1CCN(C(=O)c2ccc3cc(CCNc4ncnc5ccc(C#N)cc45)ccc3c2)CC1 [Senexin B]
AR
  activation of androgen-responsive construct (firefly luciferase reporter under PSA gene promoter): significantly inhibited
[4]
  expression of PSA and KLK2: down-regulated
[3]; LNCaP cells, Senexin B 1 μM and 4 μM (FIG. 2C)
  effect on the inhibition of androgen-inhibited genes AR, OPRK1, STXBP6 by androgen: did not interfere with the inhibition
[3]; LNCaP cells, Senexin B 1 μM and 4 μM, androgen-supplemented (500 pM R1881, 24 hr after 5-day deprivation) (FIG. 2B)
  androgen-stimulated transcriptional activation of androgen-responsive genes PSA (KLK3), KLK2, TMPRSS2, SGK1, KLF5, PGC: significantly inhibited
[3]; androgen-deprived LNCaP cells, Senexin B 1 μM and 4 μM added 1 hr before 500 pM R1881, p<0.05 vs DMSO (FIG. 3)
  androgen-stimulated transcription of androgen-responsive genes after pretreatment: significantly inhibited
Water solubility
  water solubility: ≤ 50 mM
C4-2 cells
  androgen-independent growth (total cell number): strongly inhibited
[1]; LN3 cells, CSS media 2d, treated 24 hours (FIG. 6C)
  expression of PSA and KLK2: down-regulated
[1]
  expression of KLK2: strongly down-regulates
  expression of PSA: strongly down-regulates
[5]; 5 days per week for 2 weeks
  appearance (health) of treated mice: looked as healthy as the mice in the vehicle control group
[5]; 5 days per week for 2 weeks (FIG. 9)
  body weight of the hosts: no effects
[5]; 5 days per week for 2 weeks, relative to vehicle control (FIG. 8)
  tumor growth (tumor volume): dramatically inhibits
[5]; 5 days per week for 2 weeks, vs control group (FIG. 10)
  final tumor weight: significantly lower
PC-3 cells
  growth of PC-3 cells (total cell number): inhibited
[2]; CSS media 2d, treated 24 hours (FIG. 6C)
  expression of PSA and KLK2: down-regulated
[2]
  expression of KLK2: strongly down-regulates
  expression of PSA: strongly down-regulates
CDK8
  pKd: 6.85
LNCaP-LN3 cells; LN3 cells, different concentrations of Senexin B (FIG. 6A)
  androgen-independent growth (total cell number): strongly inhibited
LNCaP-LN3 cells
  growth (total cell number): strongly inhibited
CWR22rv1 cells
  growth (total cell number): significantly inhibited
CWR22rv1 cells; different concentrations of Senexin B (FIG. 6A)
  androgen-independent growth (total cell number): strongly inhibited
